# Assay results from ChEMBL document CHEMBL5390254, “Discovery and Optimization of Novel hDHODH Inhibitors for the Treatment of Inflammatory Bowel Disease” (J Med Chem, 2023).
# Active and inactive are the calls of the source. The rule behind the calls is not given here.
# What was measured:
# [1] = Acute toxicity in BALB/c mouse assessed as changes in UA level in serum at 600 mg/kg,po and measured after 14 days by Biochemistry analysis; type: organism-based; settings: in vivo, 336 h, time 14 day
# [2] = Metabolic stability in human liver microsomes assessed as intrinsic clearance at 3 uM incubated upto 90 mins in presence of NADPH by LC-MS/MS analysis; type: ADME, Microsome; settings: read-out: CLH
# [3] = Apparent volume of distribution during terminal phase in Sprague-Dawley rat at 15 mg/kg, po and measured upto 48 hrs by LC-MS/MS analysis; type: ADME, organism-based; settings: in vivo, read-out: Vz/F
# [4] = Acute toxicity in BALB/c mouse assessed as body weight loss at 600 mg/kg,po and measured for 14 days; type: organism-based; settings: in vivo, 336 h, time 14 day
# [5] = AUCt in Sprague-Dawley rat at 5 mg/kg, iv and measured upto 48 hrs by LC-MS/MS analysis; type: ADME, organism-based; parameters: dose 5 mg/kg, time < 48 hrs, route iv; settings: in vivo
# [6] = Metabolic stability in rat liver microsomes assessed as intrinsic clearance at 3 uM incubated upto 90 mins in presence of NADPH by LC-MS/MS analysis; type: ADME, Microsome; settings: read-out: CLH
# [7] = Acute toxicity in BALB/c mouse assessed as death at 600 mg/kg,po and measured for 14 days; type: organism-based; settings: in vivo, 336 h, time 14 day
# [8] = Acute toxicity in BALB/c mouse assessed as changes in general health status at 600 mg/kg,po and measured for 14 days; type: organism-based; settings: in vivo, 336 h, time 14 day
# [9] = AUCt in Sprague-Dawley rat at 15 mg/kg, po and measured upto 48 hrs by LC-MS/MS analysis; type: ADME, organism-based; parameters: dose 15 mg/kg, time < 48 hrs, route po; settings: in vivo
# [10] = Acute toxicity in BALB/c mouse assessed as changes in RBC level in blood at 600 mg/kg,po and measured after 14 days by hematology test; type: organism-based, Erythrocyte; settings: in vivo, 336 h, time 14 day
# [11] = Apparent volume of distribution during terminal phase in Sprague-Dawley rat at 5 mg/kg, iv and measured upto 48 hrs by LC-MS/MS analysis; type: ADME, organism-based; settings: in vivo
# [12] = Acute toxicity in BALB/c mouse assessed as tissue damage in liver at 600 mg/kg,po and measured after 14 days by hematoxylin and eosin staining based microscopy; type: organism-based; settings: in vivo, 336 h, time 14 day
# Mus musculus [13] = assay: Anti-inflammatory activity against DSS-induced acute ulcerative colitis in C57BL/6 mouse model assessed as decrease in IL-17 mRNA expression level in colon at 20 to 80 mg/kg, po QD for 6 days by RT-qPCR analysis; type: functional, organism-based; settings: dose 20-80 mg/kg, time 6.0 day
# [14] = Acute toxicity in BALB/c mouse assessed as changes in hematocrit level in blood at 600 mg/kg,po and measured after 14 days by hematology test; type: organism-based; settings: in vivo, 336 h, time 14 day
# [15] = Oral bioavailability in Sprague-Dawley rat at 15 mg/kg and measured upto 48 hrs by LC-MS/MS analysis; type: ADME, organism-based; settings: in vivo
# [16] = Acute toxicity in BALB/c mouse assessed as changes in ALT level in serum at 600 mg/kg,po and measured after 14 days by Biochemistry analysis; type: organism-based; settings: in vivo, 336 h, time 14 day
# [17] = Clearance in Sprague-Dawley rat at 15 mg/kg, po and measured upto 48 hrs by LC-MS/MS analysis; type: ADME, organism-based; settings: in vivo
# [18] = Acute toxicity in po dosed BALB/c mouse assessed as maximum tolerate dose; type: organism-based; settings: in vivo
# Mus musculus [19] = assay: Anti-inflammatory activity against DSS-induced acute ulcerative colitis in C57BL/6 mouse model assessed as decrease in colon tissue damage score at 40 mg/kg, po QD for 6 days relative to DSS group; type: functional; parameters: scale not given: the % may be the effect or the level left; settings: time 6 day
# [20] = Tmax in Sprague-Dawley rat at 15 mg/kg, po and measured upto 48 hrs by LC-MS/MS analysis; type: ADME, organism-based; settings: in vivo
# Mus musculus [21] = assay: Anti-inflammatory activity against DSS-induced acute ulcerative colitis in C57BL/6 mouse model assessed as decrease in IL-1beta protein level in colon at 20 to 80 mg/kg, po QD for 6 days by ELISA; type: functional, organism-based; settings: dose 20-80 mg/kg, time 6.0 day
# [22] = Metabolic stability in human liver microsomes assessed as half life at 3 uM incubated upto 90 mins in presence of NADPH by LC-MS/MS analysis; type: ADME, Microsome
# [23] = Acute toxicity in BALB/c mouse assessed as changes in platelet count in blood at 600 mg/kg,po and measured after 14 days by hematology test; type: organism-based; settings: in vivo, 336 h, time 14 day
# Mus musculus [24] = assay: Anti-inflammatory activity against DSS-induced acute ulcerative colitis in C57BL/6 mouse model assessed as increase in colon length at 80 mg/kg, po QD for 6 days (Rvb= 5.3cm); type: functional; settings: time 6 day
# [25] = Acute toxicity in BALB/c mouse assessed as changes in neutrophil level in blood at 600 mg/kg,po and measured after 14 days by hematology test; type: organism-based; settings: in vivo, 336 h, time 14 day
# [26] = Cmax in Sprague-Dawley rat at 5 mg/kg, iv and measured upto 48 hrs by LC-MS/MS analysis; type: ADME, organism-based; parameters: time < 48 hrs, dose 5 mg/kg, route iv; settings: in vivo
# [27] = Acute toxicity in BALB/c mouse assessed as tissue damage in kidney at 600 mg/kg,po and measured after 14 days by hematoxylin and eosin staining based microscopy; type: organism-based; settings: in vivo, 336 h, time 14 day
# Mus musculus [28] = assay: Anti-inflammatory activity against DSS-induced acute ulcerative colitis in C57BL/6 mouse model assessed as decrease in body weight loss at 80 mg/kg, po QD for 6 days (Rvb= -13.4%); type: functional; parameters: scale not given: the % may be the effect or the level left; settings: time 6 day
# Mus musculus [29] = assay: Anti-inflammatory activity against DSS-induced acute ulcerative colitis in C57BL/6 mouse model assessed as decrease in DAI score at 40 mg/kg, po QD for 6 days; type: functional, organism-based; settings: time 6.0 day
# Mus musculus [30] = assay: Anti-inflammatory activity against DSS-induced acute ulcerative colitis in C57BL/6 mouse model assessed as increase in colon length at 20 mg/kg, po QD for 6 days (Rvb= 5.3cm); type: functional; settings: time 6 day
# Mus musculus [31] = assay: Anti-inflammatory activity against DSS-induced acute ulcerative colitis in C57BL/6 mouse model assessed as recovery in colon damage at 20 to 80 mg/kg, po QD for 6 days by H and E staining based microscopy; type: functional, organism-based; settings: dose 20-80 mg/kg, time 6.0 day
# Mus musculus [32] = assay: Anti-inflammatory activity against DSS-induced acute ulcerative colitis in C57BL/6 mouse model assessed as decrease in IL-17 protein level in colon at 20 to 80 mg/kg, po QD for 6 days by ELISA; type: functional, organism-based; settings: dose 20-80 mg/kg, time 6.0 day
# [33] = Acute toxicity in BALB/c mouse assessed as changes in urea level in serum at 600 mg/kg,po and measured after 14 days by Biochemistry analysis; type: organism-based; settings: in vivo, 336 h, time 14 day
# [34] = Acute toxicity in BALB/c mouse assessed as tissue damage in spleen at 600 mg/kg,po and measured after 14 days by hematoxylin and eosin staining based microscopy; type: organism-based; settings: in vivo, 336 h, time 14 day
# Mus musculus [35] = assay: Anti-inflammatory activity against DSS-induced acute ulcerative colitis in C57BL/6 mouse model assessed as decrease in DAI score at 20 to 80 mg/kg, po QD for 6 days; type: functional, organism-based; settings: dose 20-80 mg/kg, time 6.0 day
# [36] = Clearance in Sprague-Dawley rat at 5 mg/kg, iv and measured upto 48 hrs by LC-MS/MS analysis; type: ADME, organism-based; settings: in vivo
# Mus musculus [37] = assay: Anti-inflammatory activity against DSS-induced acute ulcerative colitis in C57BL/6 mouse model assessed as decrease in IL-6 protein level in colon at 20 to 80 mg/kg, po QD for 6 days by ELISA; type: functional, organism-based; settings: dose 20-80 mg/kg, time 6.0 day
# [38] = Acute toxicity in BALB/c mouse assessed as changes in TP level in serum at 600 mg/kg,po and measured after 14 days by Biochemistry analysis; type: organism-based; settings: in vivo, 336 h, time 14 day
smiles,measurement,setting,value
Nc1nc(-c2cn(Cc3c(F)cccc3Cl)c3ncccc23)ncc1C1CC1,Activity,[1],Non-Toxic
same,CLint scaled at 3 µM,[2],91.8 mL/min/kg
same,Vd/F,[3],2.95 L/kg
same,Activity,[4],Non-Toxic
same,AUC(0-t) at 48 h,[5],17900 ng·h/mL
same,CLint scaled at 3 µM,[6],319 mL/min/kg
same,Activity,[7],Non-Toxic
same,Activity,[8],Non-Toxic
same,AUC(0-t) at 48 h,[9],11600 ng·h/mL
same,Activity,[10],Non-Toxic
same,Vz/F,[11],1.05 L/kg
same,Activity,[12],Non-Toxic
same,Activity,Mus musculus [13],Dose-Dependent Effect
same,Activity,[14],Non-Toxic
same,bioavailability,[15],21.7%
same,Activity,[16],Non-Toxic
same,CL/F,[17],21.7 mL/min/kg
same,MTD,[18],600 mg/kg
same,Activity,Mus musculus [19],54.55%
same,Tmax,[20],2 h
same,Activity,Mus musculus [21],Dose-Dependent Effect
same,half-life at 3 µM,[22],0.315 h
same,Activity,[23],Non-Toxic
same,Activity,Mus musculus [24],7.5 cm
same,Activity,[25],Non-Toxic
same,Cmax,[26],12300 ng/mL
same,Activity,[27],Non-Toxic
same,Activity,Mus musculus [28],1.4%
same,Activity,Mus musculus [29],Active
same,Activity,Mus musculus [30],6.1 cm
same,Activity,Mus musculus [31],Dose-Dependent Effect
same,Activity,Mus musculus [32],Dose-Dependent Effect
same,Activity,[33],Non-Toxic
same,Activity,[34],Non-Toxic
same,Activity,Mus musculus [35],Dose-Dependent Effect
same,clearance,[36],5 mL/min/kg
same,Activity,Mus musculus [37],Dose-Dependent Effect
same,Activity,[38],Non-Toxic
